Test results: patent US7232845B2, “Active substance combinations comprising insecticidal and acaricidal properties” (Bayer CropScience AG, priority 2000, dated 2007)

The compounds below were run on whitefly Bemisia tabaci (assay: Bemisia test (cotton plants infested with whitefly, immersed in active compound preparation)). Conditions: single active compound, 4 ppm; eggs, larvae and pupae on cotton plants (Gossypium hirsutum), immersion.
Format: in vivo
From the text: The expected action for a given combination of two active compounds can be calculated as follows, using the formula of S. R. Colby, Weeds 15 (1967), 20–22:
• X is the efficacy, expressed as % of the untreated control, when employing active compound A at an application rate of m g/ha or in a concentration of m ppm, • Y is the efficacy, expressed as % of the untreated control, when employing active compound B at an application rate of n g/ha or in a concentration of n ppm and • E is the efficacy, expressed as % of the untreated control, when employing active compounds A and B at application rates of m and n g/ha or in a concentration of m and n ppm, then
[formula] If the actual insecticidal kill rate exceeds the calculated value, the action of the combination is superadditive, i.e. a synergistic effect is present. In this case, the actually observed insecticidal kill rate must exceed the value calculated using the above formula for the expected insecticidal kill rate (E).
• Solvent: 7.5 parts by weight of dimethylformamide • Emulsifier: 2.5 parts by weight of alkylaryl polyglycol ether
To produce a suitable preparation of active compound, 1 part by weight of active compound is mixed with the stated amounts of solvent and emulsifier, and the concentrate is diluted with water to the desired concentration.
Cotton plants (Gossypium hirsutum) which are infested with eggs, larvae and pupae of the whitefly Bemisia tabaci are immersed in a preparation of active compound of the desired concentration.
After the desired period of time, the kill in % is determined. 100% means that all animals have been killed; 0% means that none of the animals have been killed.

SMILES	Kill rate in % after 10^d [%]
CC1(C)C(C=C(Cl)Cl)C1C(=O)OC(C#N)c1ccc(F)c(Oc2ccccc2)c1 (stereo not drawn) [Cyfluthrin, cyfluthrin]	0
Cc1cc(C)c(C2=C(OC(=O)CC(C)(C)C)C3(CCCC3)OC2=O)c(C)c1 [Ex. (I-b-1)]	0
Cc1c(COC(=O)C2C(/C=C(\Cl)C(F)(F)F)C2(C)C)cccc1-c1ccccc1 (stereo not drawn) [Bifenthrin, bifenthrin]	0
